The results in this text go back to EP3381898A1, “SYMMETRICAL TRIS-ARYL-AMIDE DERIVATIVES AND THEIR USE AS ANTI-HEPARANASE” (priority 2017, dated 2018).

Molecules are shown by their SMILES. Where two headings read alike, the source gives them in different places. Some results are limits rather than exact numbers.

One test addresses T1, heparanase (Homo sapiens, UniProt Q9Y251).
T1 sequence (Q9Y251 158-543 limits assumed): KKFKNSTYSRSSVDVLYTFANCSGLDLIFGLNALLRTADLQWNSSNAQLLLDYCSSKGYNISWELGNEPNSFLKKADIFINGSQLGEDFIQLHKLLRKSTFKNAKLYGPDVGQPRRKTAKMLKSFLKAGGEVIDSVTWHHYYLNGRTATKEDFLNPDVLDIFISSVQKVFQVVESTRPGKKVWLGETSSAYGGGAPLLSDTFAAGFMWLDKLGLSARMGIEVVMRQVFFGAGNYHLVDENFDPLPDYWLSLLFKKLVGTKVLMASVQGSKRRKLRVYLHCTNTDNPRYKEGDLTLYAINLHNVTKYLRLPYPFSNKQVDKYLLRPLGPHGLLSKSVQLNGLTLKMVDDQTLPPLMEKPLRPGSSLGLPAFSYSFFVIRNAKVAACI
T1 sequence (Q9Y251 36-109 limits assumed): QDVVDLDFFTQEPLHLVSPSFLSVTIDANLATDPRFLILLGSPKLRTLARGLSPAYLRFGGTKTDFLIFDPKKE
Description: AGA*IA assay: heparanase-catalyzed fondaparinux cleavage, colorimetric (WST-1). Type of test: biochemical. On the procedure:
All compounds were tested in a simple, accurate and robust microplate assay based on the cleavage of the synthetic heparin fragment, the pentasaccharide Fondaparinux (AGA*IA). This assay was originally developed by Hammond and coworkers (Hammond E, Li CP, Ferro V. Development of a colorimetric assay for heparanase activity suitable for kinetic analysis and inhibitor screening. Anal. Biochem. 396(1), 112-116 (2010)), where Fondaparinux corresponds to the methyl glycoside of the antithrombin III (ATIII)-activating pentasaccharide sequence of heparin. Fondaparinux is cleaved by heparanase to generate a reducing disaccharide, which can be quantitatively measured via a colorimetric or a fluorescence assay, the last by the fluorescent sensor polymer-H [Schiemann S, Lühn S, Alban S. Development of both colorimetric and fluorescence heparinase activity assays using fondaparinux as substrate. Anal. Biochem. 427(1), 82-89 (2012)].
The assay measures the appearance of the disaccharide product of heparanase-catalyzed fondaparinux cleavage colorimetrically using the tetrazolium salt WST-1. Assay was essentially performed as described with minor modifications. Briefly, NUNC ELISA 96-well plates were pre-treated with a solution of 4% BSA (bovin serum albumin) in phosphate-buffered saline containing 0.05% Tween 20 (PBST), for 2 h at 37°C, then washed three times with PBST, dried by tapping on paper towel and stored at -20°C. Before use, once again, the plates were washed with PBST.
Assay was carried out with 100 µl/well of assay solution containing 40 mM sodium acetate buffer (pH 5.0), 100 µM fondaparinux, 2.5 nM heparanase and serial dilutions of test compounds (tested in triplicate). Plates were sealed with adhesive tape and incubated, in the dark, for 3 h at 37°C, followed by development with 1.69 mM of the tetrazolium salt WST-1 solution in 0.1 M NaOH, for 1 h at 60°C. Then, the absorbance at 560 nm was measured through a microplate reader (Victor 3, Perkin Elmer).
Finally, the measurements were corrected by subtracting both the reagent background and the inner absorbance value of test compound.
(Tetrazolium assays rely on reduction of a dye to a coloured formazan, in cell work by metabolically active cells.)

Test [1] has as its system HT1080 (human fibrosarcoma). Description: SRB Cell Cytotoxicity Assay (cell proliferation, 72h). Type of test: cell-based. Conditions: HT-1080, 72 h, read-out: Concentration (µM) of test compounds at which the cell growth is inhibited by 50 %. HT1080. On the procedure: (§1) SRB Cell Cytotoxicity Assay is an assay based upon the quantitative staining of cellular proteins by sulforhodamine B (SRB). This assay can be used for high-throughput drug screening ([…], Nature Protocol. 2006, 1, 112). Sulforhodamine B is an anionic aminoxanthene dye that forms an electrostatic complex with the basic amino acid residues of proteins under moderately acid conditions, which provides a sensitive linear response. […] Inhibition of cell proliferation was then measured by the classical colorimetric SRB Cell Cytotoxicity assay. Absorbance was measured by spectrophotometer at a wavelength of 510 nm and cell proliferation was determined as percent with respect to control cells (cells treated with the vehicle alone). EC50 values were then determined by GraphPad Prism.

In test [2] the test system is U2OS (human osteosarcoma). The description is as above. Type of test: cell-based. To be noted: 72 h, read-out: Concentration (µM) of test compounds at which the cell growth is inhibited by 50 %. U2OS. As for the experimental part: as §1
Test [3] has as its system U87MG (human glioblastoma astrocytoma). The description is as above. Type of test: cell-based. Conditions: U-87 MG, 72 h, read-out: Concentration (µM) of test compounds at which the cell growth is inhibited by 50 %. U87MG. As for the experimental part: as §1
[4] abbreviates: Table 1, range activity classes, AGA*IA test on Fondaparinux, read-out: AGAIA assay IC50.
Where [5] appears, read: Table 2, classes as in Table 1, read-out: AGA*IA assay.

As to `Cn1cc(NC(=O)c2cccc(NC(=O)Nc3cccc(C(=O)Nc4cc(C(=O)Nc5cccc(CC(=O)N[C@@H](Cc6ccccc6)C(=O)O)c5)n(C)c4)c3)c2)cc1C(=O)Nc1cccc(CC(=O)N[C@@H](Cc2ccccc2)C(=O)O)c1` [Compound 12e, 2,2'-{carbonylbis[imino-3,1-phenylenecarbonylimino(1-methyl-1H-pyrrole-4,2-diyl)carbonylimino-3,1-phenylene(1-oxoethane-2,1-diyl)imino]}bis(3-phenylpropanoic acid)], the IC50 on heparanase (AGA*IA screening, read-out: anti-heparanase activity) is below 0.5 µM; on heparanase (setting [4]) it was 0.05 to 0.49 µM; on heparanase (setting [5]) it was 0.05 to 0.49 µM. In addition, the EC50 in test [1], in test [2] and in test [3] was above 2.5 µM throughout.
In the case of `Cn1cc(NC(=O)Nc2cc(C(=O)Nc3cc(C(=O)Nc4cccc(CC(=O)O)c4)n(C)c3)n(C)c2)cc1C(=O)Nc1cc(C(=O)Nc2cccc(CC(=O)O)c2)n(C)c1` [Compound 17h, 2,2'-{carbonylbis[imino(1-methyl-1H-pyrrole-4,2-diyl)carbonylimino(1-methyl-1H-pyrrole-4,2-diyl)carbonylimino-3,1-phenylene]}diacetic acid], the IC50 on heparanase (setting [4]) and at heparanase (setting [5]) was 0.5 to 0.99 µM in each case. Also, the EC50 in test [1], in test [2] and in test [3] was above 2.5 µM in each case.
With `Cn1cc(NC(=O)c2ccc(Oc3ccc(C(=O)Nc4cc(C(=O)Nc5cccc(CC(=O)N[C@@H](CCC(=O)O)C(=O)O)c5)n(C)c4)cc3)cc2)cc1C(=O)Nc1cccc(CC(=O)N[C@@H](CCC(=O)O)C(=O)O)c1` [Compound 36f, (2S,2'S)-2,2'-((2,2'-(((4,4'-((4,4'-Oxybis(benzoyl))bis(azanediyl))bis(1-methyl-1H-pyrrole-2,2'-carbonyl))bis(azanediyl))bis(3,1-phenylene))bis(acetyl))bis(azanediyl))dipentanedioic acid], at heparanase (setting [4]), the IC50 fell in the range of 1 to 20 µM.
As to `CC(C)C[C@H](NC(=O)Cc1cccc(NC(=O)c2cc(NC(=O)c3cc(NC(=O)Nc4cc(C(=O)Nc5cc(C(=O)Nc6cccc(CC(=O)N[C@@H](CC(C)C)B(O)O)c6)n(C)c5)n(C)c4)cn3C)cn2C)c1)B(O)O` [Compound 41, ((1R,1'R)-((2,2'-(((4,4'-((4,4'-(carbonylbis(azanediyl))bis(1-methyl-1H-pyrrole-4,2-diyl-2-carbonyl))bis(azanediyl))bis(1-methyl-1H-pyrrole-4,2-diyl-2-carbonyl))bis(azanediyl))bis(3,1-phenylene))bis(acetyl))bis(azanediyl))bis(3-methylbutane-1,1-diyl))diboronic acid], the IC50 at heparanase (setting [4]) was in the range of 1 to 20 µM.
With `CC(C)C[C@H](NC(=O)Cc1cccc(NC(=O)c2cc(NC(=O)c3ccc(Oc4ccc(C(=O)Nc5cc(C(=O)Nc6cccc(CC(=O)N[C@@H](CC(C)C)B(O)O)c6)n(C)c5)cc4)cc3)cn2C)c1)B(O)O` [Compound 42, ((1R,1'R)-((2,2'-(((4,4'-((4,4'-Oxybis(benzoyl))bis(azanediyl))bis(1-methyl-1H-pyrrole-2,2'-carbonyl))bis(azanediyl))bis(3,1-phenylene))bis(acetyl))bis(azanediyl))bis(3-methylbutane-1,1-diyl))diboronic acid], the IC50 at heparanase (setting [4]) fell in the range of 1 to 20 µM.
Regarding `CC(C)C[C@H](NC(=O)Cc1cccc(NC(=O)c2cc(NC(=O)c3cccc(NC(=O)Nc4cccc(C(=O)Nc5cc(C(=O)Nc6cccc(CC(=O)N[C@@H](CC(C)C)B(O)O)c6)n(C)c5)c4)c3)cn2C)c1)B(O)O` [Compound 43, ((1R,1'R)-((2,2'-(((4,4'-((3,3'-(Carbonylbis(azanediyl))bis(benzoyl))bis(azanediyl))bis(1-methyl-1H-pyrrole-4,2-diyl-2-carbonyl))bis(azanediyl))bis(3,1-phenylene))bis(acetyl))bis(azanediyl))bis(3-methylbutane-1,1-diyl))diboronic acid], the IC50 on heparanase (setting [4]) lay in the range of 1 to 20 µM.
For `CC(C)C[C@H](NC(=O)CNC(=O)Cc1cccc(NC(=O)c2cc(NC(=O)c3cc(NC(=O)Nc4cc(C(=O)Nc5cc(C(=O)Nc6cccc(CC(=O)NCC(=O)N[C@@H](CC(C)C)B(O)O)c6)n(C)c5)n(C)c4)cn3C)cn2C)c1)B(O)O` [Compound 46, ((1R,1'R)-((2,2'-((2,2'-(((4,4'-((4,4'-(carbonylbis(azanediyl))bis(1-methyl-1H-pyrrole-4,2-diyl-2-carbonyl))bis(azanediyl))bis(1-methyl-1H-pyrrole-4,2-diyl-2-carbonyl))bis(azanediyl))bis(3,1-phenylene))bis(acetyl))bis(azanediyl))bis(acetyl))bis(azanediyl))bis(3-methylbutane-1,1-diyl))diboronic acid], the IC50 at heparanase (setting [4]) fell in the range of 1 to 20 µM.
Consider `CC(C)C[C@H](NC(=O)CNC(=O)Cc1cccc(NC(=O)c2cc(NC(=O)c3cccc(NC(=O)Nc4cccc(C(=O)Nc5cc(C(=O)Nc6cccc(CC(=O)NCC(=O)N[C@@H](CC(C)C)B(O)O)c6)n(C)c5)c4)c3)cn2C)c1)B(O)O` [Compound 47, ((1R,1'R)-((2,2'-((2,2'-(((4,4'-((3,3'-(Carbonylbis(azanediyl))bis(benzoyl))bis(azanediyl))bis(1-methyl-1H-pyrrole-4,2-diyl-2-carbonyl))bis(azanediyl))bis(3,1-phenylene))bis(acetyl))bis(azanediyl))bis(acetyl))bis(azanediyl))bis(3-methylbutane-1,1-diyl))diboronic acid], for which the IC50 at heparanase (setting [4]) was 1 to 20 µM.
